Source: US9743665B2, “Fungicidal 3-{phenyl[heterocyclylmethoxy)imino]methyl}-oxadiazolone derivatives” (BAYER CROPSCIENCE AKTIENGESELLSCHAFT, priority 2013, dated 2017)
Marks after values point to notes of the source that are not given here.

Experiments:
Plasmopara viticola = test: Example J: Plasmopara test (grapevines)/preventive; type: in vivo; settings: grapevine plants, preventive spray, 10 ppm of active ingredient, evaluated 6 days after inoculation
Method: Example J: Plasmopara Test (Grapevines)/Preventive
To produce a suitable preparation of active compound, 1 part by weight of active compound is mixed with the stated amounts of solvent and emulsifier, and the concentrate is diluted with water to the desired concentration.
To test for preventive activity, young plants are sprayed with the preparation of active compound at the stated rate of application. After the spray coating has dried on, the plants are inoculated with an aqueous spore suspension of Plasmopara viticola and then remain for 1 day in an incubation cabinet at approximately 20° C. and a relative atmospheric humidity of 100%. The plant is subsequently placed for 4 days in a greenhouse at approximately 21° C. and a relative atmospheric humidity of approximately 90%. The plants are then misted and placed for 1 day in an incubation cabinet.
The test is evaluated 6 days after the inoculation. 0% means an efficacy which corresponds to that of the untreated control, while an efficacy of 100% means that no disease is observed.

Botrytis cinerea = test: Example B: in vivo preventive test on Botrytis cinerea (grey mould); settings: gherkin plants, preventive spray, 500 ppm of active ingredient, evaluated 4 to 5 days after inoculation
Method: Example B: In Vivo Preventive Test on Botrytis cinerea (Grey Mould)
(§1) The tested active ingredients are prepared by homogenization in a mixture of acetone/Dimethyl sulfoxide/Tween®, and then diluted with water to obtain the desired active material concentration.
The young plants of gherkin are treated by spraying the active ingredient prepared as described above. Control plants are treated only with an aqueous solution of acetone/Dimethyl sulfoxide/Tween®.
After 24 hours, the plants are contaminated by spraying the leaves with an aqueous suspension of Botrytis cinerea spores. The contaminated gherkin plants are incubated for 4 to 5 days at 17° C. and at 90% relative humidity.
The test is evaluated 4 to 5 days after the inoculation. 0% means an efficacy which corresponds to that of the control plants while an efficacy of 100% means that no disease is observed.

Phytophthora infestans [1] = type: in vivo; settings: tomato plants, preventive spray, 500 ppm of active ingredient, evaluated 5 days after inoculation
[2] = pH 2.7
Method: (§4) Measurement of IogP values was performed according EEC directive 79/831 Annex V.A8 by HPLC (High Performance Liquid Chromatography) on reversed phase columns with the following methods:
(§5) Measurement of LC-MS was done at pH 2.7 with 0.1% formic acid in water and with acetonitrile (contains 0.1% formic acid) as eluent with a linear gradient from 10% acetonitrile to 95% acetonitrile.
(§6) Calibration was done with not branched alkan2-ones (with 3 to 16 carbon atoms) with known logP-values (measurement of logP values using retention times with linear interpolation between successive alkanones). lambda-maX-values were determined using UV-spectra from 200 nm to 400 nm and the peak values of the chromatographic signals.

Pyrenophora teres = test: Example E: in vivo preventive test on Pyrenophora teres (net blotch on barley); settings: barley plants, preventive spray, 500 ppm of active ingredient, evaluated 14 days after inoculation
Method: Example E: In Vivo Preventive Test on Pyrenophora teres (Net Blotch on Barley)
as §1
The young plants of barley are treated by spraying the active ingredient prepared as described above. Control plants are treated only with an aqueous solution of acetone/Dimethyl sulfoxide/Tween®.
After 24 hours, the plants are contaminated by spraying the leaves with an aqueous suspension of Pyrenophora teres spores. The contaminated barley plants are incubated for 48 hours at 20° C. and at 100% relative humidity and then for 12 days at 20° C. and at 70-80% relative humidity.
The test is evaluated 14 days after the inoculation. 0% means an efficacy which corresponds to that of the control plants while an efficacy of 100% means that no disease is observed.

Septoria tritici = test: Example G: in vivo preventive test on Septoria tritici (leaf spot on wheat); settings: wheat plants, preventive spray, 500 ppm of active ingredient, evaluated 24 days after inoculation
Method: Example G: In Vivo Preventive Test on Septoria tritici (Leaf Spot on Wheat)
as §1
(§2) The young plants of wheat are treated by spraying the active ingredient prepared as described above. Control plants are treated only with an aqueous solution of acetone/Dimethyl sulfoxide/Tween®.
After 24 hours, the plants are contaminated by spraying the leaves with an aqueous suspension of Septoria tritici spores. The contaminated wheat plants are incubated for 72 hours at 18° C. and at 100% relative humidity and then for 21 days at 20° C. and at 90% relative humidity.
The test is evaluated 24 days after the inoculation. 0% means an efficacy which corresponds to that of the control plants while an efficacy of 100% means that no disease is observed.

Uromyces appendiculatus = test: Example H: in vivo preventive test on Uromyces appendiculatus (bean rust); settings: bean plants, preventive spray, 500 ppm of active ingredient, evaluated 11 days after inoculation
Method: Example H: In Vivo Preventive Test on Uromyces appendiculatus (Bean Rust)
as §1
The young plants of bean are treated by spraying the active ingredient prepared as described above. Control plants are treated only with an aqueous solution of acetone/Dimethyl sulfoxide/Tween®.
After 24 hours, the plants are contaminated by spraying the leaves with an aqueous suspension of Uromyces appendiculatus spores. The contaminated bean plants are incubated for 24 hours at 20° C. and at 100% relative humidity and then for 10 days at 20° C. and at 70-80% relative humidity.
(§3) The test is evaluated 11 days after the inoculation. 0% means an efficacy which corresponds to that of the control plants while an efficacy of 100% means that no disease is observed.

Puccinia recondita = test: Example D: in vivo preventive test on Puccinia recondita (brown rust on wheat); settings: wheat plants, preventive spray, 500 ppm of active ingredient, evaluated 11 days after inoculation
Method: Example D: In Vivo Preventive Test on Puccinia recondita (Brown Rust on Wheat)
as §1, §2
After 24 hours, the plants are contaminated by spraying the leaves with an aqueous suspension of Puccinia recondita spores. The contaminated wheat plants are incubated for 24 hours at 20° C. and at 100% relative humidity and then for 10 days at 20° C. and at 70-80% relative humidity.
as §3

Phytophthora infestans [3] = type: in vivo; settings: tomato plants, preventive spray (DMF/alkylaryl polyglycol ether), 500 ppm of active ingredient, evaluated 7 days after inoculation
[4] = pH 2.7; remark: listed apart in the source
Method: as §4, §5, §6

Alternaria brassicae = test: Example A: in vivo preventive test on Alternaria brassicae (leaf spot on radish); settings: radish plants, preventive spray, 500 ppm of active ingredient, evaluated 6 days after inoculation
Method: Example A: In Vivo Preventive Test on Alternaria brassicae (Leaf Spot on Radish)
as §1
The young plants of radish are treated by spraying the active ingredient prepared as described above. Control plants are treated only with an aqueous solution of acetone/Dimethyl sulfoxide/Tween®.
After 24 hours, the plants are contaminated by spraying the leaves with an aqueous suspension of Alternaria brassicae spores. The contaminated radish plants are incubated for 6 days at 20° C. and at 100% relative humidity.
The test is evaluated 6 days after the inoculation. 0% means an efficacy which corresponds to that of the control plants while an efficacy of 100% means that no disease is observed.

Pyricularia oryzae = type: in vivo; settings: rice plants, preventive spray, 500 ppm of active ingredient, evaluated 6 days after inoculation

SMILES	Eff. % (Plasmopara viticola) [%]	% efficacy (Phytophthora infestans [1]) [%]	LogP [2]	% efficacy (Pyrenophora teres) [%]	also measured
Cn1c(/C(=N\OCc2nc(C(=O)NCCc3ccccc3)cs2)c2ccccc2)noc1=O [Example 15]	75	100	3.27^[a]		% efficacy (Botrytis cinerea): 73%
Cn1c(/C(=N\OCc2nc(C(=O)Nc3ccccc3)cs2)c2ccccc2)noc1=O [Example 16]		80	3.29^[a]	71	% efficacy (Septoria tritici): 79%
Cn1c(/C(=N\OCc2nc(NC(=O)OC(C)(C)C)cs2)c2ccccc2)noc1=O [Example 6]	99	100	3.64^[a]	80	
Cn1c(/C(=N\OCc2nc(C#CCCCc3ccccc3)cs2)c2ccccc2)noc1=O [Example 20]		90	4.68^[a]		% efficacy (Uromyces appendiculatus): 81%; % efficacy (Puccinia recondita): 78%
CCCCCCNC(=O)c1csc(CO/N=C(/c2ccccc2)c2noc(=O)n2C)n1 [Example 18]		99	3.76^[a]	71	% efficacy (Uromyces appendiculatus): 72%
CCCCCOC(=O)Nc1ccn(CO/N=C(/c2ccccc2)c2nc(=O)on2C)n1 [Example 7, pentyl {1-[({[(Z)-(2-methyl-5-oxo-2,5-dihydro-1,2,4-oxadiazol-3-yl)(phenyl)methylene]amino}oxy)methyl]-1H-pyrazol-3-yl}carbamate]	85				Eff. % (Phytophthora infestans [3]): 100%; chromatographic logP [4]: 3.06
Cn1c(/C(=N\OCc2nc(C#CC3CC3)cs2)c2ccccc2)noc1=O [Example 10]		100	3.56^[a]		% efficacy (Alternaria brassicae): 97%
Cn1c(/C(=N\OCc2nc(C#Cc3ccc(F)cc3)cs2)c2ccccc2)noc1=O [Example 13]		95	4.09^[a]		% efficacy (Pyricularia oryzae): 79%
